Measurements from patent US6524625B2, “Physiologically active extract obtained from indigo plant polygonum tinctorium” (Kabushiki Kaisha Hayashibara Seibutsu Kagaku Kenkyuto, priority 1998, dated 2003).
Values after ≈ are worked out from the molar mass of the structure shown. Read-outs that look alike come from different tables or passages of the source.

Assays:
[1] = system: Helicobacter pylori (NCTC 11638); assay: Antiseptic action: MIC, agar plate dilution method; format: cell-based; conditions: for MIC: NCTC11638, Helicobacter pylori (NCTC 11638), Brucella broth agar with horse blood, read-out: Minimum inhibitory concentration; for Inhibition of the growth of Helicobacter pylori (in words): comment on Table 8
[2] = system: Bacillus cereus (IFO 3466); assay: Antiseptic action: MIC, agar plate dilution method; format: cell-based; conditions: IFO3466; Bacillus cereus (IFO 3466); read-out: Minimum inhibitory concentration
[3] = system: Pseudomonas aeruginosa (IFO 3453); assay: Antiseptic action: MIC, agar plate dilution method; format: cell-based; conditions: IFO3453; Pseudomonas aeruginosa (IFO 3453); read-out: Minimum inhibitory concentration
[4] = system: Staphylococcus aureus (ATCC 6538P); assay: Antiseptic action: MIC, agar plate dilution method; format: cell-based; conditions: ATCC6538P; Staphylococcus aureus (ATCC 6538P); read-out: Minimum inhibitory concentration
[5] = system: vesicular stomatitis virus (VSV); assay: microbe, parasite or virus in culture; format: cell-based; conditions: L929, 24 h, read-out: 50% Growth inhibitory concentration
[6] = system: HGC-27 cells; assay: Antitumor action: growth inhibition, methylene blue staining; format: cell-based; conditions: Homo sapiens; HGC-27 cells, 48 hours; read-out: 50% growth inhibitory concentration
Experimental: (§1) Solutions in each well were serially diluted with a fresh preparation of the same RPMI1640 medium (pH 7.2) as used in the above. […] Each cell suspension was distributed to a microplate in a volume of 50 μl/well and incubated at 37° C. for 48 hours in a 5 v/v % CO2 incubator. To each microplate, a 25 v/v % aqueous glutaraldehyde solution was added in a volume of 20 μl/well, and the microplate was allowed to stand for 15 min to fix the cells. Then, the cells adhered to the wells were washed with water, admixed with a 0.05 w/v % aqueous methylene blue solution in a volume of 100 μl/well, and further allowed to stand for 15 min to stain the cells. Thereafter, an excessive amount of the staining solution was removed from the wells by washing with water, and the cells were dried, admixed with 300 μl/well of 0.33 N hydrochloric acid, stirred sufficiently, and measured for absorption at a wavelength of 620 nm. In parallel, as a control, a system free of a test sample was provided and treated similarly as in the test samples. […]

[7] = system: HL-60 cells; assay: as above; format: cell-based; conditions: Homo sapiens; HL-60 cells, 48 hours; read-out: 50% growth inhibitory concentration
Experimental: as §1

[8] = system: HLC-1 cells; assay: as above; format: cell-based; conditions: Homo sapiens; HLC-1 cells, 48 hours; read-out: 50% growth inhibitory concentration
Experimental: as §1

[9] = Radical-entrapping action, nitro blue tetrazolium (NBT) method; format: biochemical; conditions: for Radical-entrapping action: one unit = 50% inhibition of formazan formation, xanthin oxidase/xanthin/NBT; for Radical-entrapping action (in words): comment on Table 11
Experimental: Then the formed formazan was quantified on spectro-chemical analysis. Either of the present physiologically active extracts was dissolved in a refined water to give an appropriate concentration, and the solutions were used for test samples. As a control it was provided by replacing the test samples with a refined water. The 50% inhibitory activity for the formation of formazan in the control was defined as a one unit activity of radical-entrapping action. Based of the definition, the radical-entrapping activity of one gram of each test sample was determined.

[10] = system: interferon-γ production; conditions: HBL-38 cells + LPS; for Interferon-γ production level: 24 hours, positive control 5.468, negative control 1.367
Experimental: HBL-38 cells as an immunocompetent cell were cultured until proliferated to a prescribed cell density. After culturing, the proliferated HBL-38 cells were washed three times with RPMI1640 medium (pH 7.2) (hereinafter designated as “serum-free medium” in Experiment 15) by centrifugation, and adjusted to give a cell density of 1×10^8 cells/ml using the serum-free medium. To one milliliter of the cell suspension were added 4.5 ml of the serum-free medium and 0.5 ml of a disperse solution prepared by dissolving dispase, commercialized by Godo Shusei, Co., Ltd., Tokyo, Japan, in physiological saline to give a concentration of 10,000 units/ml, and the mixture was incubated at 37° C. for 90 min under shaking conditions. Thereafter, HBL-38 cells were washed three times with the serum medium by centrifugation and mixed with the serum medium into a cell suspension with a cell density of 1×10^6 cells/ml.
(§2) […] of either of the above dilutes of Compound 7, 150 μl of the above cell suspension of HBL-38 cells treated with disperse, and 50 μl of a serum-free medium containing 5 μg/ml of lipopolysaccharide (LPS) were added to each well in a microplate, and the cells were incubated at 37° C. for 24 hours in a 5 v/v % CO2 incubator and used for test group. In parallel, as a negative control, a system with a serum-free medium in place of the serum-free medium containing LPS in the test group, and, as a positive group, a system with a serum medium in place of the dilute of Compound 7 in the test group were provided and treated similarly as in test group. After 24-hour incubation, 50 μl aliquots of supernatants from each well were collected. The collected supernatants were respectively subjected to conventional enzyme immunoassay using Gg23-901-530, obtained from National Institute of Health, Bethesda, Md., USA, as a standard for human interferon-γ, and quantified for interferon-γ production in each system. The cells in each well, from which the supernatants were removed, were mixed with 50 μl aliquots of a ^3H-thymidine solution with a radiation intensity of 5 μCi/ml in serum medium, and incubated at 37° C. for eight hours in a 5 v/v % CO2 incubator. Thereafter, the cells in each well in the microplate were collected with a glass filter, measured for radiation intensity by “DIRECT β-COUNTER MATRIX 96”, a β-ray detector commercialized by Packard Instrument Co., Conn., USA, and examined for ^3H-thymidine uptake by the cells in each well. […] In Table 13 the level of ^3H-thymidine uptake is expressed with a relative value (%) to the positive control.

[11] = system: HBL-38 cells; conditions: for Relative value of 3H-thymidine uptake: HBL-38 cells, relative to positive control = 100
Experimental: as §2

Question: For `O=c1c(O)c(-c2ccc(O)cc2)oc2cc3c(c(O)c12)OCO3` [Compound 2, 3,5, 4′-trihydroxy-6,7-methylenedioxy-flavone], which MIC [1] is on record?
Answer: Its MIC is 156 µg/mL (≈ 496 µM).

Question: What about the MIC [2] of the same compound?
Answer: The MIC was 313 µg/mL (≈ 996 µM).

Question: And the MIC [3]?
Answer: Its MIC is 313 µg/mL (≈ 996 µM).

Question: What about the MIC [4] of the same compound?
Answer: Its MIC is 313 µg/mL (≈ 996 µM).

Question: And the IC50 [5]?
Answer: The IC50 was 14 µg/mL (≈ 44.6 µM).

Question: What about the IC50 [6] of the same compound?
Answer: Its IC50 is 37.1 µg/mL (≈ 118 µM).

Question: And the IC50 [7]?
Answer: The IC50 was 244 µg/mL (≈ 775 µM).

Question: What about the IC50 [8] of the same compound?
Answer: The IC50 was 40.4 µg/mL (≈ 129 µM).

Question: What about the Radical-entrapping action [9] of the same compound?
Answer: The Radical-entrapping action was 1,830 unit/g.

Question: What does the source list for `O=c1c(O)c(-c2ccc(O)cc2)oc2cc(O)cc(O)c12` [Compound 3, kaempferol]?
Answer: MIC [1]: 39 µg/mL (≈ 136 µM); Inhibition of the growth of Helicobacter pylori (in words) [1]: strongly inhibited the growth; Radical-entrapping action [9]: 14,000 unit/g

Question: With `COc1c(O)cc2oc(-c3ccc(O)cc3)c(O)c(=O)c2c1O` [Compound 4, 3,5,7,4′-tetrahydroxy-6-methoxy-flavone] as the compound, how does the MIC [1] read?
Answer: The MIC was 39 µg/mL (≈ 123 µM).

Question: What about the “Inhibition of the growth of Helicobacter pylori (in words)” value [1] of the same compound?
Answer: Its value is “strongly inhibited the growth”.

Question: And the Radical-entrapping action [9]?
Answer: Its Radical-entrapping action is 4,010 unit/g.

Question: For `O=C(O)c1cc(O)c(O)c(O)c1` [Compound 5, gallic acid], which “Radical-entrapping action (in words)” value [9] is on record?
Answer: Its value is “remarkable”.

Question: And the Radical-entrapping action [9]?
Answer: Its Radical-entrapping action is 692,000 unit/g.

Question: Which results are given for `O=C(O)/C=C/c1ccc(O)c(O)c1` [Compound 6, caffeic acid]?
Answer: Radical-entrapping action (in words) [9]: remarkable; Radical-entrapping action [9]: 418,000 unit/g

Question: What does the source list for `O=C1Nc2ccccc2/C1=C1/Nc2ccccc2C1=O` [Compound 7, 3-(1,3-dihydro-3-oxo-2H-indol-2-ylidene)-1,3-dihydro-2H-indol-2-one]?
Answer: Interferon-γ production level ([10]; 0.07 ng/ml): 2.753 IU/ml; Interferon-γ production level ([10]; 0.15 ng/ml): 2.195 IU/ml; Interferon-γ production level ([10]; 0.31 ng/ml): 1.979 IU/ml; Interferon-γ production level ([10]; 0.62 ng/ml): 1.958 IU/ml; Interferon-γ production level ([10]; 1.25 ng/ml): 1.288 IU/ml; Interferon-γ production level ([10]; 2.5 ng/ml): 1.342 IU/ml; Interferon-γ production level ([10]; 5.0 ng/ml): 0.932 IU/ml; Interferon-γ production level ([10]; 10.0 ng/ml): 0.965 IU/ml; Concentration at which interferon-γ production was inhibited to the same or lower level as the negative control free of LPS [10]: at least 1.25 ng/ml; Inhibition of interferon-γ production (in words) [10]: inhibited the interferon-γ production dose-dependently; Relative value of 3H-thymidine uptake ([11]; 0.07 ng/ml): 98.0%; Relative value of 3H-thymidine uptake ([11]; 0.15 ng/ml): 98.3%; Relative value of 3H-thymidine uptake ([11]; 0.31 ng/ml): 99.7%; Relative value of 3H-thymidine uptake ([11]; 0.62 ng/ml): 96.4%; Relative value of 3H-thymidine uptake ([11]; 1.25 ng/ml): 99.6%; Relative value of 3H-thymidine uptake ([11]; 2.5 ng/ml): 105.7%; Relative value of 3H-thymidine uptake ([11]; 5.0 ng/ml): 101.1%; Relative value of 3H-thymidine uptake ([11]; 10.0 ng/ml): 99.4%; Level of 3H-thymidine uptake by HBL-38 cells, control vs test groups (in words) ([11]; 0.07-10.0 ng/ml): no significant difference
